Assay results from patent US10703746B2, “Mutant IDH1 inhibitors useful for treating cancer” (THE UNITED STATES OF AMERICA, AS REPRESENTED BY THE …, priority 2014, dated 2020).
pIC50: −log10 of the molar value.

Legend:
IDH1 R132C = IDH1 R132C (Homo sapiens, UniProt O75874, R132C); assay: IDH1 R132C enzymatic assay (NADPH depletion coupled to diaphorase/resazurin); type: biochemical
Summary of the method: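 NADPH depletion, read via diaphorase/resazurin coupling, after adding substrate at 0.6 mM α-KG and 0.012 mM NADPH. Beforehand, 0.00032 mg/mL enzyme sat with compound 30 min at room temperature in pH 6.5 potassium phosphate buffer with MgCl2, glycerol and BSA.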

IDH1 R132H = IDH1 R132H (Homo sapiens, UniProt O75874, R132H); assay: IDH1 R132H enzymatic assay (NADPH depletion coupled to diaphorase/resazurin); type: biochemical
[1] = enzymatic inhibition, IDH1 R132C
[2] = enzymatic inhibition, IDH1 R132H
[3] = IDH1 R132C enzymatic inhibition, IC50 class
[4] = IDH1 R132H enzymatic inhibition, IC50 class

IDH1 R132H, sequence (O75874 whole entry R132H): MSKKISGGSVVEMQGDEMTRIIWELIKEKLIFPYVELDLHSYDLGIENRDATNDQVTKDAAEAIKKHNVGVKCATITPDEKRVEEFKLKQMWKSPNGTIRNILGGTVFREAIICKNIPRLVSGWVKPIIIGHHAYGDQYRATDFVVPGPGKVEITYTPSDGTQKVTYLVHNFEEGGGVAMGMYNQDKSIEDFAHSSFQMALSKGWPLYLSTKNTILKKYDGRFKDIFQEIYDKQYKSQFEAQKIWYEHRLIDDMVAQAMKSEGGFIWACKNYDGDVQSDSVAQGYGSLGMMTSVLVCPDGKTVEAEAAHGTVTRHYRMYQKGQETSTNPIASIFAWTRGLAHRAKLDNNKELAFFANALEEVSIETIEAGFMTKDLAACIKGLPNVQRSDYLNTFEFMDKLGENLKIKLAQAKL
IDH1 R132C, sequence (O75874 whole entry R132C): as the sequence (O75874 whole entry R132H) above, with H132C counted along it

| pIC50 (IDH1 R132C; [1]) | pIC50 (IDH1 R132H; [2]) | pIC50 (IDH1 R132C; [3]) | pIC50 (IDH1 R132H; [4]) | SMILES |
| --- | --- | --- | --- | --- |
| > 6.52 | > 6.52 | – | – | CC(C)=Cc1c(C(=O)N2CCNCC2)cc(-c2nc(-c3ccc(Cl)cc3)cs2)c(=O)n1-c1c(F)cccc1OC(C)C [Compound 494] |
| 5.30 to 6.00 | 6.00 to 6.52 | – | – | CCc1cccc(C)c1-n1c(C)c(C(=O)N2CCNCC2)cc(-c2nc(-c3ccc(Cl)cc3)cs2)c1=O [Compound 432] |
| – | – | 4.70 to 5.30 | 5.30 to 6.00 | CCc1cccc(CC)c1-n1c(C=C(C)C)c(C(=O)N2CCNCC2)cc(-c2nn(-c3ccc(Cl)cc3)cc2Br)c1=O [Compound 363] |
| – | – | 5.30 to 6.00 | 5.30 to 6.00 | COc1ccc(OC)c(-n2c3c(cc(-c4nc(-c5ccc(Cl)cc5)cs4)c2=O)C(=O)CN(C)C3)c1 [Compound 253] |
| > 6.52 | > 6.52 | – | – | CCCC1CN(C(=O)c2cc(-c3nc(-c4ccc(Cl)cc4)cs3)c(=O)n(-c3c(CC)cccc3CC)c2C=C(C)C)CCN1 (centres unmarked) [Compound 542] |
| – | – | > 6.52 | > 6.52 | COc1ncc(C)cc1-n1c(C=C(C)C)c(C(=O)N2CCNCC2)cc(-c2nc(-c3ccc(Cl)cc3)cs2)c1=O [Compound 667] |
| > 6.52 | 6.00 to 6.52 | – | – | CCc1cccc(CC)c1-n1c(C=C(C)C)c(C(=O)N2CCNCC23COC3)cc(-c2nc(-c3ccc(Cl)cc3)cs2)c1=O [Compound 443] |
| – | – | > 6.52 | > 6.52 | CCc1cccc(CC)c1-n1c(C=C(C)C)c(C(=O)N2CCNC(=O)C2CC(=O)O)cc(-c2nc(-c3ccc(Cl)cc3)cs2)c1=O (centres unmarked) [Compound 337] |
| – | – | > 6.52 | 6.00 to 6.52 | CCc1cccc(CC)c1-n1c(C(C)C)c(C(=O)N2CCNCC2)cc(-c2nc(-c3ccc(Cl)cc3)cs2)c1=O [Compound 86] |
| – | – | 5.30 to 6.00 | 5.30 to 6.00 | COc1cccc(F)c1-n1c2c(cc(-c3nc(-c4ccc(Cl)cc4)cs3)c1=O)C(=O)CC(C)(C)C2 [Compound 668] |
| – | – | 6.00 to 6.52 | 6.00 to 6.52 | CCc1cccc(CC)c1-n1c(C(C)C)c(C(=O)N2CCN[C@H](CO)C2)cc(-c2nc(-c3ccc(Cl)cc3)cs2)c1=O [Compound 252] |
| – | – | 5.30 to 6.00 | 5.30 to 6.00 | COc1ccc(OC)c(-n2c3c(cc(-c4nc(-c5ccc(Cl)cc5)cs4)c2=O)C(=O)CCC3)c1 [Compound 129] |
| 5.30 to 6.00 | 6.00 to 6.52 | – | – | CCc1cccc(CC)c1-n1c(CC(C)C)c(C(=O)N2CCNCC2)cc(-c2nc(-c3ccc(Cl)cc3)c(C(=O)N(C)C)s2)c1=O [Compound 464] |
| > 6.52 | > 6.52 | – | – | CCc1cccc(CC)c1-n1c(C=C(C)C)c(C(=O)N2CCNCC2)cc(-c2nc(-c3ccc(Cl)cc3)cs2)c1=O [Compound 408] |
| – | – | > 6.52 | > 6.52 | CC(C)=Cc1c(C(=O)N2CCNCC2)cc(-c2nc(-c3ccc(Cl)cc3)cs2)c(=O)n1-c1cc(C)cnc1OC(C)C [Compound 401] |
| > 6.52 | > 6.52 | – | – | CCc1cccc(CC)c1-n1c(C=C(C)C)c(C(=O)N2CCNCC2COC)cc(-c2nc(-c3ccc(Cl)cc3)cs2)c1=O (centres unmarked) [Compound 536] |
| – | – | > 6.52 | 6.00 to 6.52 | CCCC1CNCCN1C(=O)c1cc(-c2nc(-c3ccc(Cl)cc3)cs2)c(=O)n(-c2c(CC)cccc2CC)c1C=C(C)C (centres unmarked) [Compound 648] |
| 4.70 to 5.30 | 5.30 to 6.00 | – | – | CCc1ncc(OC)cc1-n1c(C=C(C)C)c(C(=O)N2CCNCC2)cc(-c2nc(-c3ccc(C(F)F)cn3)cs2)c1=O [Compound 466] |
| > 6.52 | > 6.52 | – | – | CCc1cccc(CC)c1-n1c(C=C(C)C)c(C(=O)N2CCNCC2)cc(-c2nc(-c3ccc(C(F)(F)F)cc3)cs2)c1=O [Compound 581, 1-(2,6-diethylphenyl)-6-(2-methylprop-1-en-1-yl)-5-(piperazine-1-carbonyl)-3-(4-(4-(trifluoromethyl)phenyl)thiazol-2-yl)pyridin-2(1H)-one] |
| > 6.52 | > 6.52 | – | – | CCc1ccccc1-n1c(C=C(C)C)c(C(=O)N2CCNCC2)cc(-c2nc(-c3ccc(Cl)cc3)cs2)c1=O [Compound 596] |
| > 6.52 | > 6.52 | – | – | CCc1cccc(CC)c1-n1c(C2CCCO2)c(C(=O)N2CCNCC2)cc(-c2nc(-c3ccc(Cl)cc3)cs2)c1=O (centres unmarked) [Compound 457] |
| – | – | 5.30 to 6.00 | 6.00 to 6.52 | CCc1ncc(OC)cc1-n1c(C=C(C)C)c(C(=O)N2CCNCC2)cc(-c2nc(-c3ccc(C(F)(F)F)nc3)cs2)c1=O [Compound 334] |
| > 6.52 | > 6.52 | – | – | COc1ccc(C)cc1-n1c(C=C(C)C)c(C(=O)N2CCNCC2)cc(-c2nc(-c3ccc(Cl)cc3)cs2)c1=O [Compound 438] |
| > 6.52 | > 6.52 | – | – | COc1cccc(OC)c1-n1c(C=C(C)C)c(C(=O)N2CCNCC2)cc(-c2nc(-c3ccc(Cl)cc3)cs2)c1=O [Compound 467] |
| – | – | 6.00 to 6.52 | > 6.52 | CCc1cccc(CC)c1-n1c(COCCOC)c(C(=O)N2CCNCC2)cc(-c2nc(-c3ccc(Cl)cc3)cs2)c1=O [Compound 393] |
| 5.30 to 6.00 | 6.00 to 6.52 | – | – | CCOc1ncc(Cl)cc1-n1c(C=C(C)C)c(C(=O)N2CCNCC2)cc(-c2nc(-c3ccc(C(F)F)cn3)cs2)c1=O [Compound 469] |
| – | – | < 4.70 | < 4.70 | CCc1cccc(CC)c1-n1c(C)c(C(=O)N2CCC(C(=O)O)C2)cc(-c2nc(-c3ccc(Cl)cc3)cs2)c1=O (centres unmarked) [Compound 36] |
| – | – | 5.30 to 6.00 | 5.30 to 6.00 | CCc1cccc(CC)c1-n1c(C)c(C(=O)N2CCOCC2)cc(-c2nc(-c3ccc(Cl)cc3)cs2)c1=O [Compound 110] |
| 6.00 to 6.52 | > 6.52 | – | – | CCOc1ncc(Cl)cc1-n1c(C=C(C)C)c(C(=O)N2CCNCC2)cc(-c2nc(-c3ccc(C(F)F)cc3)cs2)c1=O [Compound 407] |
| > 6.52 | > 6.52 | – | – | CCc1cccc(CC)c1-n1c(C=C(C)C)c(C(=O)N2CCNCC2CC)cc(-c2nc(-c3ccc(Cl)cc3)cs2)c1=O (centres unmarked) [Compound 569] |

More lines, now with the values behind:

| SMILES | pIC50 (IDH1 R132C; [1]) | pIC50 (IDH1 R132H; [2]) | pIC50 (IDH1 R132C; [3]) | pIC50 (IDH1 R132H; [4]) |
| --- | --- | --- | --- | --- |
| CC1(C)CC(=O)c2cc(-c3nc(-c4ccc(Cl)cc4)cs3)c(=O)n(-c3cscc3C(N)=O)c2C1 [Compound 429] | 4.70 to 5.30 | 4.70 to 5.30 | – | – |
| COc1ccc(OC)c(-n2c3c(cc(-c4nc(C5CCCCC5)cs4)c2=O)C(=O)CC(C)(C)C3)c1 [Compound 69] | – | – | 5.30 to 6.00 | 5.30 to 6.00 |
| CN1CCN(c2ccc(C(F)(F)F)c(-n3c4c(cc(-c5nc(-c6ccc(Cl)cc6)cs5)c3=O)C(=O)CC(C)(C)C4)c2)CC1 [Compound 645] | – | – | 5.30 to 6.00 | 5.30 to 6.00 |
| CCc1cccc(CC)c1-n1c(CC(C)C)c(C(=O)NC[C@H](N)C(=O)O)cc(-c2nc(-c3ccc(Cl)cc3)cs2)c1=O [Compound 221] | – | – | 6.00 to 6.52 | 5.30 to 6.00 |
| CCc1cccc(CC)c1-n1c(CC(C)C)c(C(=O)NC(C)(C)CO)cc(-c2nc(-c3ccc(Cl)cc3)cs2)c1=O [Compound 54] | – | – | 6.00 to 6.52 | 6.00 to 6.52 |
| CCc1cccc(CC)c1-n1c2c(cc(-c3nc(-c4ccc(Cl)cc4)cs3)c1=O)C(=O)N(C)C2C(C)C (centres unmarked) [Compound 338] | – | – | 6.00 to 6.52 | 5.30 to 6.00 |
| CC1(C)CC(=O)c2cc(-c3nc(-c4ccc(Cl)cc4)cs3)c(=O)n(-c3ccccc3C(F)(F)F)c2C1 [Compound 57] | – | – | > 6.52 | 6.00 to 6.52 |
| COc1ccccc1-n1c2c(cc(-c3nc(-c4ccc(Cl)cc4)cs3)c1=O)C(=O)CC(C)(C)C2 [Compound 12] | – | – | 5.30 to 6.00 | 5.30 to 6.00 |
| CCc1cccc(CC)c1-n1c(CC(C)C)c(C(=O)N2CC(C(=O)OC)NCC2C)cc(-c2nc(-c3ccc(Cl)cc3)cs2)c1=O (centres unmarked) [Compound 113] | – | – | 6.00 to 6.52 | 5.30 to 6.00 |
| CCc1cccc(CC)c1-n1c(C)c(C(=O)NC2CCC(O)CC2)cc(-c2nc(-c3ccc(Cl)cc3)cs2)c1=O (centres unmarked) [Compound 219] | – | – | 5.30 to 6.00 | 5.30 to 6.00 |
| CCc1cccc(CC)c1-n1c(CC(C)C)c(C(=O)N2CCNCC2)cc(-c2nc(-c3ccc(Cl)c(F)c3)c(C)s2)c1=O [Compound 608] | > 6.52 | > 6.52 | – | – |
| CN1CCN(Cc2ccccc2-n2c3c(cc(-c4nc(-c5ccc(Cl)cc5)cs4)c2=O)C(=O)CCC3)CC1 [Compound 440] | 4.70 to 5.30 | 4.70 to 5.30 | – | – |
| COc1ccc(OC)c(-n2c(C)ccc(-c3nc(-c4ccc(Cl)cc4)cs3)c2=O)c1 [Compound 62] | – | – | 4.70 to 5.30 | < 4.70 |
| CCc1cccc(CC)c1-n1c(C=C(C)C)c(C(=O)N2CCNCC2)cc(-c2ccn(-c3ccc(C4CC4)cc3)n2)c1=O [Compound 606] | > 6.52 | > 6.52 | – | – |
| CCCSc1ccccc1-n1c2c(cc(-c3nc(-c4ccc(Cl)cc4)cs3)c1=O)C(=O)CC(C)(C)C2 [Compound 135] | – | – | 6.00 to 6.52 | 5.30 to 6.00 |
| CCc1cccc(CC)c1-n1c(CC(C)C)c(C(=O)NC[C@@H](NC(C)=O)C(=O)O)cc(-c2nc(-c3ccc(Cl)cc3)cs2)c1=O [Compound 29] | – | – | 5.30 to 6.00 | 5.30 to 6.00 |
| CCc1cccc(CC)c1-n1c(CC(C)C)c(C(=O)N2CCNCC2)cc(-c2nc(-c3ccc(Cl)c(OC)c3)c(C)s2)c1=O [Compound 633] | – | – | 6.00 to 6.52 | 6.00 to 6.52 |
| CCc1cccc(CC)c1-n1c2c(cc(-c3nc(-c4ccc(Cl)cc4)cs3)c1=O)C(=O)OC2 [Compound 194] | – | – | 4.70 to 5.30 | < 4.70 |
| CCc1cccc(CC)c1-n1c(CC(C)C)c(C(=O)N2CCNCC2)cc(-c2nc(-c3ccc(C(=O)N4CCOCC4)cc3)c(C)s2)c1=O [Compound 87] | – | – | 4.70 to 5.30 | 4.70 to 5.30 |
| CCc1cccc(CC)c1-n1c(CC(C)C)c(C(=O)N2CCNCC2)cc(-c2nc(-c3ccc(Cl)c(C)c3)c(C)s2)c1=O [Compound 624] | – | – | > 6.52 | 6.00 to 6.52 |
| CCc1cccc(CC)c1-n1c(CC(C)C)c(C(=O)N2CCNCC2)cc(-c2ccn(-c3ccc(Cl)cc3)n2)c1=O [Compound 184] | – | – | > 6.52 | > 6.52 |
| CCc1cccc(CC)c1-n1c(CC(C)C)c(C(=O)N2CCNCC2)cc(-c2nc(-c3ccc(Cl)cc3C)c(C)s2)c1=O [Compound 540] | 5.30 to 6.00 | 5.30 to 6.00 | – | – |
